Test results reported in paper PMC3914206.

Assays:
Assay type in all cases: binding
Settings in all cases: Compound Concentration 10 µM
[1] = biological target: T1, panel of 442 kinases (Homo sapiens, UniProt P10721, D816V)
T1 construct: purchased KINOMEscan
Text: (§1) We assessed the selectivity of members of this scaffold using the KINOMEscan methodology across a near comprehensive panel of 442 kinases [[18,27]].

[2] = biological target: T2, panel of 442 kinases (Homo sapiens, UniProt P50613)
T2 construct: purchased KINOMEscan
T2 sequence (P50613 whole entry): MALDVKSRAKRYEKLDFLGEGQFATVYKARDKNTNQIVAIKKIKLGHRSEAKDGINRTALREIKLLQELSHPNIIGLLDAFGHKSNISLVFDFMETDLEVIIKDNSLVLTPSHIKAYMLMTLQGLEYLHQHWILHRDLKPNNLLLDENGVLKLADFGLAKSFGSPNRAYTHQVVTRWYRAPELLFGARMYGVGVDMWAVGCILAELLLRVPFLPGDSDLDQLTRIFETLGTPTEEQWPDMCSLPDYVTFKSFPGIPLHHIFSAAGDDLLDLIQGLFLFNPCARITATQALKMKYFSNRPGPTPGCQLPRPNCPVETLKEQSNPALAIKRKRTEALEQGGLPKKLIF
Text: as §1

[3] = biological target: T3, panel of 442 kinases (Homo sapiens, UniProt P36888, K663Q)
T3 construct: purchased KINOMEscan
T3 sequence (P36888 27-993 K663Q): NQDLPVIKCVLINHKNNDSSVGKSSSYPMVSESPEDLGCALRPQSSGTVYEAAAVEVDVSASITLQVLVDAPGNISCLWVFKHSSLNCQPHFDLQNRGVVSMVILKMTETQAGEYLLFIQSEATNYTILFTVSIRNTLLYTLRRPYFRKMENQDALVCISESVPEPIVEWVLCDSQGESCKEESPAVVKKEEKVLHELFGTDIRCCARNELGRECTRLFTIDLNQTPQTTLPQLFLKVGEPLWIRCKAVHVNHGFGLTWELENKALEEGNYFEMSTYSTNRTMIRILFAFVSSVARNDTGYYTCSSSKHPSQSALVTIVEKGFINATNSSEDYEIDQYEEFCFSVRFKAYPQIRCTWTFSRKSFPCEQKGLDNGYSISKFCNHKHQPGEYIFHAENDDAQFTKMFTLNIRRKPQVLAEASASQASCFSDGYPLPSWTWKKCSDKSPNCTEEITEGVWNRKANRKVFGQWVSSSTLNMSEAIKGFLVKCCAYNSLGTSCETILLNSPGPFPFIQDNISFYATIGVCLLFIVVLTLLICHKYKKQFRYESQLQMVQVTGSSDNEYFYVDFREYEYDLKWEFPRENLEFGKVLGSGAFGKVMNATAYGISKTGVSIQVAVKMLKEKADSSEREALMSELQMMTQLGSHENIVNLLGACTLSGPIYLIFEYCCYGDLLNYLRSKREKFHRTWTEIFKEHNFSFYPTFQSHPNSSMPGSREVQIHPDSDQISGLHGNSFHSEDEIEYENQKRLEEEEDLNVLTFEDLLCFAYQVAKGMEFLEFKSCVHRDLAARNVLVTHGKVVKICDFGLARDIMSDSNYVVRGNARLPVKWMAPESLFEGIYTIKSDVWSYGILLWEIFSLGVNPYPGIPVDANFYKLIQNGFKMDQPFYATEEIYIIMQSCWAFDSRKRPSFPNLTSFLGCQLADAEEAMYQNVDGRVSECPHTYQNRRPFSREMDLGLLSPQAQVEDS
Text: as §1

T1 sequence (P10721 26-976 D816V): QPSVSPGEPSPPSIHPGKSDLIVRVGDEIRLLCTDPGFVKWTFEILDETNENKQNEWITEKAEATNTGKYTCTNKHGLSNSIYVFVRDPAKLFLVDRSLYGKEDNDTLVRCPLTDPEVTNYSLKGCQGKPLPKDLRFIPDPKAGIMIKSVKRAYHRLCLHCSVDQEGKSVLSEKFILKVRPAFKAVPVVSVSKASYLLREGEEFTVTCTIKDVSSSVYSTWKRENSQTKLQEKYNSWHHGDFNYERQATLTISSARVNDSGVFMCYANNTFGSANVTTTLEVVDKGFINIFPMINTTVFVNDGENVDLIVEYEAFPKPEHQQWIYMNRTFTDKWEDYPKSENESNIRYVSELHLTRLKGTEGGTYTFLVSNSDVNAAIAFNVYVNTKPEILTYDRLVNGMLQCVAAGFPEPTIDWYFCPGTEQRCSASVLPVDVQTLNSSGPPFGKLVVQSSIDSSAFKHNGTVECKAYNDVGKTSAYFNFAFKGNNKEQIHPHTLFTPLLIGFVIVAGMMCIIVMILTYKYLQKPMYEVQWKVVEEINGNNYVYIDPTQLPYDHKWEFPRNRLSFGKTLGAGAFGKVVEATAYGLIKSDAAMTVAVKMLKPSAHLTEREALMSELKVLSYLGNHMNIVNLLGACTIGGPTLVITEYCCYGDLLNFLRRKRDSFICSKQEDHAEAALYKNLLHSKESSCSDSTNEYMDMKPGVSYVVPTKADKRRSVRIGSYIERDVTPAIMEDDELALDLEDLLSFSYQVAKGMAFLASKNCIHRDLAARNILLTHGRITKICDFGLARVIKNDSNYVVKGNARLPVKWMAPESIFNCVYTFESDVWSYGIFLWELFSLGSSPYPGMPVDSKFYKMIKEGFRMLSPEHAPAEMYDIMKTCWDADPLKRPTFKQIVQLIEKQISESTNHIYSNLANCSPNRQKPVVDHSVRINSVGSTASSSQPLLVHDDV

**Q.** Which results are given for `CCOc1cc(C(=O)N2CCC(N3CCN(C)CC3)CC2)ccc1Nc1ncc2c(n1)N(C1CCCC1)c1ccccc1C(=O)N2C` [Compound 26]?
**A.** KINOMEscan: KIT(D816V) [1]: 96; KINOMEscan: CDK7 [2]: 57; KINOMEscan: FLT3(K663Q) [3]: 100

**Q.** `COc1cc(C(=O)N2CCC(N3CCN(C)CC3)CC2)ccc1Nc1ncc2c(n1)N1CCc3cccc(c31)C(=O)N2C` [Compound 24] was tested. Which “KINOMEscan: FLT3(K663Q)” value [3] did it give?
**A.** 100

**Q.** With `COc1cc(C(=O)N2CCC(N3CCN(C)CC3)CC2)ccc1Nc1ncc2c(n1)N(C)c1ccccc1C(=O)N2C` [15 (LRRK2-IN-1)] as the compound, how does the “KINOMEscan: KIT(D816V)” value [1] read?
**A.** 72

**Q.** What about the “KINOMEscan: CDK7” value [2] of the same compound?
**A.** 86

**Q.** What about the “KINOMEscan: FLT3(K663Q)” value [3] of the same compound?
**A.** 97

**Q.** `COc1cc(C(=O)N2CCC(N3CCN(C)CC3)CC2)ccc1Nc1ncc2c(n1)N(C1CCCC1)c1ccccc1C(=O)N2C` [Compound 25, 11-cyclopentyl-2-((2-methoxy-4-(4-(4-methylpiperazin-1-yl)piperidine-1-carbonyl)phenyl)amino)-5-methyl-5H-benzo[e]pyrimido[5,4-b][1,4]diazepin-6(11H)-one] was tested. Which “KINOMEscan: KIT(D816V)” value [1] did it give?
**A.** 92

**Q.** What about the “KINOMEscan: CDK7” value [2] of the same compound?
**A.** 18

**Q.** What about the “KINOMEscan: FLT3(K663Q)” value [3] of the same compound?
**A.** 100
